Test results from patent publication US20050113318A1, “Combination of dehydroepiandrosterone or dehydroepiandrosterone-sulfate with a beta-agonist bronchodilator for treatment of asthma or chronic obstructive pulmonary disease” (priority 2003, published 2005).

Assays:
tissue adenosine = test: In vivo effect on adenosine levels in various rat tissues; parameters: species or system Fischer 344 rats
Description: Folinic acid (50 mg/kg) was administered intraperitoneally once daily for fourteen days. […] Hearts were removed from animals and flash frozen in liquid nitrogen with 10 s of death. Liver and lungs were removed en bloc and flash frozen with 30 s of death. Brain tissue was subsequently dissected.

[1] = Solubility of DHEA-S dihydrate and nebulizer solution properties; format: physicochemical; conditions: for solubility: range of triplicates
From the text: Inhalation of pure water can produce a cough stimulus. […] The temperature effect is weaker at high NaCl concentrations.

[2] = Short-term solution stability of DHEA-S in 0.12% NaCl; format: physicochemical; conditions: for appearance / decomposition on storage: 10 mg/mL in 0.12% NaCl
Description: Aliquots of this solution are filled into clear glass vials and stored at RT (24-26° C.) and at 40° C. The samples are checked daily for DHEA-S content, DHEA content, and appearance. For each time point, duplicate samples are withdrawn and diluted from each vial. […] The study is stopped on day three. […] The solution should easily be stable for the day of reconstitution in a clinical trial. The following section describes the aerosol properties of this formulation.

HT-29 SF cells [3] = test: Reversal of DHEA-mediated growth inhibition; format: cell-based, human; conditions: 25 μM DHEA, 48 hours; 2 μM MVA, 80 μM SQ, 15 μg/ml CH, RN 30 μM each, DN 20 μM each
[4] = test system: rat peritoneal mast cells; test: Compound 48/80-induced histamine release from rat peritoneal mast cells; format: cell-based
Description: Following incubation, the mixture is cooled to 4° C. then centrifuged at 4500 rpm for 5 min. The supernatant is collected and mixed for 30 min at 4° C. with 5% TCA (trichloroacetic acid) to cause protein precipitation. After centrifugation at 9500×g for 15 min, the supernatant is collected and mixed with 0.25 M HCl. Thereafter, the samples are mixed with 2M NaOH and 0.2% OPT (ortho-phtalaldehyde).and incubated for 30 min at 4° C. in darkness, after which time the reaction is stopped by addition of 0.5 M H2SO4.
The amount of secreted histamine is quantified by measuring the fluorescence intensity at λex=360 nm and λem=450 nm using a spectrofluorimeter (GeminiXS, Molecular Devices). The results are expressed as a percent inhibition of control histamine secretion.

HT-29 SF cells [5] = test: Reversal of DHEA effect on cell cycle; format: cell-based, human; conditions: 25 μM DHEA, 48 and 72 hours
[6] = Particle size of DHEA-S powders (laser diffraction, light microscope); format: physicochemical
Description: Approximately 1 g sample was passed through the jet mill, once, and approximately 2 g sample were passed through the jet mill twice. […] The resulting solution was sonicated for 3 minutes and appeared fully dispersed. The dispersed solutions were tested on a Malvern Mastersizer X with a small volume sampler (SVS) attachment. One sample of dispersed material was tested 5 times. The median particle size or D (v, 0.5) of unmilled material was 52.56 μm and the % RSD (relative standard deviation) was 7.61 for the 5 values. The D (v, 0.5) for a single pass through the jet mill was 3.90 μm and the % RSD was 1.27, and the D (v, 0.5) from a double pass through the jet mill 3.25 μm and the % RSD was 3.10.
The solution was spray-dried with a B-191 Mini Spray-Drier (Buchi, Flawil, Switzerland) with an inlet temperature of 55° C., outlet temperature of 40° C., at 100% aspirator, at 10% pump, nitrogen flow at 40 mbar and spray flow at 600 units. The spray-dried product was suspended in hexane and Span85 surfactant added to reduce agglomeration. The dispersions were sonicated with cooling for 3-5 minutes for complete dispersion and the dispersed solutions tested on a Malvern Mastersizer X with a Small Volume Sampler (SVS) attachment. […] Visual examination by light microscope of the dispersions of each batch confirmed that spray drying produced small respirable size particles. The mean particle size was 2.4 μm and 2.0 μm for each batch, respectively.
(§1) Surface area is determined using five point BET analyses are performed with nitrogen as the adsorbing gas (P/Po=0.05 to 0.30) using a Micromeritics TriStar surface area analyzer. Particle size distributions are measured by laser diffraction using a Micromeritics Saturn Digisizer where the particles are suspended in mineral oil th sodium dioctyl sodium sulfosuccinate as a dispersing agent. Drug substance water content is measured by Karl Fischer titration (Schott Titroline KF). Pure water is used as the standard and all relative standard deviations for triplicates are less than 1%. Powder is added directly to the titration media.

[7] = Physicochemical testing of DHEA-S dihydrate (BET surface area, Karl Fischer water, impurities)
Description: as §1

[8] = Fine particle fraction, single-dose Acu-Breathe inhaler into Andersen impactor; format: physicochemical; conditions: neat micronized powder, 30 to 75 L/min, FIG. 1
Description: These blisters are actuated into the Andersen 8-stage cascade impactor at flow rates ranging from 30 to 75 L/min with a glass twin-impinger throat. Stages 1-5 of the Andersen impactor are rinsed together to obtain an estimate of the fine particle fraction. Pooling the drug collected from multiple stages into one assay make the method much more sensitive. […] Using a carrier with a larger particle size typically improves the aerosol properties of micronized drug substances.
Approximately 25 mg of this powder is filled and sealed in foil blisters and aerosolized using the single-dose device at 60 L/min. The aerosol results for this preliminary powder blend are satisfactory for a respiratory drug delivery system. […] This diameter is smaller than the median diameter measured for micronized DHEA-S.dihydrate by laser diffraction. Irregularly shaped particles can behave aerodynamically as smaller particles since their longest dimension tends to align with the air flow field. Therefore, it is common to see a difference between the two methods. Diffraction measurements are a quality control test for the input material while cascade impaction is a quality control test for the finished product.

[9] = Solid-state stability with and without lactose (DHEA formed, HPLC); format: physicochemical
From the text: These conditions were used to stress the formulation in order to predict its long-term stability results. […] This color change is accompanied by a significant change in the chromatogram as shown in. FIG. 1. The primary degradant is DHEA. […] The materials on accelerated storage become more cohesive with time as evidenced by clumping during sample weighing for chemical analysis. […] This is a considerable disadvantage since lactose is the most commonly used inhalation excipient for dry powder formulations. Continuing with the virtually anhydrous form would mean limiting formulations to neat powder or undertaking more comprehensive safety studies to use a novel excipient.

HT-29 SF cells [10] = test: DHEA effect on cell growth (Coulter counter); format: cell-based, human; conditions: 12.5-200 μM, 24-72 hours, FIG. 14
HT-29 SF cells [11] = test: DHEA effect on cell cycle distribution (flow cytometry); format: cell-based, human
Description: Cells were plated at 10^5/60-mm dish in duplicate. […] Cultures were trypsinized following […] and fixed and stained using a modification of a procedure of Bauer et al., Cancer Res. 46, 3173-3178 (1986). Briefly, cells were collected by centrifugation and resuspended in cold phosphate-buffered saline. Cells were fixed in 70% ethanol, washed, and resuspended in phosphate-buffered saline.
After 24, 48, and 72 hours, cells were harvested, fixed in ethanol, and stained with propidium iodide, and the DNA content/cell was determined by flow cytometric analysis. The percentage of cells in G1, S, and G2M phases was calculated using the Cellfit cell cycle analysis program. S phase is marked by a quadrangle for clarity. Representative histograms from duplicate determinations are shown. The experiment was repeated three times.

[12] = rat, daily for two weeks, DHEA, high dose methyltestosterone

Nc1nc(=O)c2c([nH]1)NCC(CNc1ccc(C(=O)N[C@@H](CCC(=O)O)C(=O)O)cc1)N2C=O (mixture of isomers) [Folinic Acid]
Intracellular adenosine, Brain (tissue adenosine; rat brain, once daily 14 days, DHEA 300 mg/kg, methyltestosterone 40 mg/kg by gavage, folinic acid 50 mg/kg i.p., mean ± SEM): 0.72 ± 0.09 nmols/mg protein
Intracellular adenosine, Heart (tissue adenosine; rat heart, once daily 14 days, DHEA 300 mg/kg, methyltestosterone 40 mg/kg by gavage, folinic acid 50 mg/kg i.p., mean ± SEM): 12.4 ± 2.1 nmols/mg protein
Intracellular adenosine, Liver (tissue adenosine; rat liver, once daily 14 days, DHEA 300 mg/kg, methyltestosterone 40 mg/kg by gavage, folinic acid 50 mg/kg i.p., mean ± SEM): 16.4 ± 2.4 nmols/mg protein
adenosine levels, folinic acid administered alone (tissue adenosine; rat, 50 mg/kg i.p. 14 days): increase in adenosine levels for all organs studied
effect of coadministration of folinic acid on steroid-mediated adenosine depletion (tissue adenosine; rat, with DHEA or methyltestosterone): completely abrogated

C[C@]12CC[C@H](OS(=O)(=O)[O-])CC1=CC[C@@H]1[C@@H]2CC[C@]2(C)C(=O)CC[C@@H]12.[Na+] [DHEA-S, sodium dehydroepiandrostenone sulfate]
solubility in hexane [1]: insoluble
solubility ([1]; 0.9% NaCl, refrigerated (7-8° C.)): 1100 to 1300 µg/mL
Ksp ([1]; 15° C., interpolated): ~1316 mM^2
equilibrium constant Ksp ([1]; refrigerated (7-8° C.)): 665 mM^2
equilibrium constant Ksp ([1]; room temperature (24-25° C.)): 2236 mM^2
solubility ([1]; ~25° C., 0% NaCl, excess DHEA-S dihydrate): 16500 to 17400 µg/mL
solution stability of nebulizer formulation ([2]; 7.5 mg/mL in 0.12% NaCl, RT): stable for at least one day at RT
appearance / decomposition on storage ([2]; 40° C.): became cloudy after two days of storage
appearance / decomposition on storage ([2]; RT (24-26° C.)): slight precipitate is observed on the third day

CC(C)=CCC/C(C)=C/CC/C(C)=C/CC/C=C(\C)CC/C=C(\C)CCC=C(C)C [SQ, squalene]
reversal of DHEA-induced growth inhibition by supplement (HT-29 SF cells [3]): no such effect

CC(C)(C)NCC(O)c1ccc(O)c(CO)c1 (stereo not drawn) [Salbutamol, (α1-tert-butylaminomothyl)-4-hydroxy-m-xylene-α1,α3-diol]
inhibition at 1 pM ([4]; Rattus norvegicus, Mast cell): -1%
inhibition at 10 pM ([4]; Rattus norvegicus, Mast cell): 7%
inhibition at 0.0001 µM ([4]; Rattus norvegicus, Mast cell): 2%
inhibition of compound 48/80-induced histamine release ([4]; Salbutamol 1, 10 and 100 pM alone): no or trivial inhibition

CC(C)CCC[C@@H](C)[C@H]1CC[C@H]2[C@@H]3CC=C4C[C@@H](O)CC[C@]4(C)[C@H]3CC[C@]12C [CH, cholesterol]
reversal of DHEA-induced growth inhibition by supplement (HT-29 SF cells [3]): no such effect
prevention of DHEA-induced S phase depletion by supplement (HT-29 SF cells [5]): very little effect at 48 hours and no effect at 72 hours

CC12CCC3C(CC=C4CC(OS(=O)(=O)[O-])CCC43C)C1CCC2=O.[Na+] (centres unmarked) [DHEA-S dihydrate]
Particle size (D50%) ([6]; Bulk, before micronization): 31 microns
Particle size (D50%) ([6]; Micronized): 3.7 microns
Impurities ([7]; Bulk): No significant peaks
Water ([7]; Bulk): 8.5 % w/w
Impurities ([7]; Micronized): No significant peaks
Surface area ([7]; Micronized): 4.9 m^2/g
Water ([7]; Micronized): 8.4 % w/w
fine particle fraction as a function of flow rate [8]: higher fine particle fraction than the virtually anhydrous material
DHEA % formed ([9]; 50° C., 1 week): 0.216%
DHEA % formed ([9]; 50° C., 3 weeks): 0.317%
DHEA % formed ([9]; 50° C., 4 weeks): 0.374%
DHEA % formed ([9]; Control: neat, sealed vial, 25° C., 4 weeks): 0.218%
DHEA % formed ([9]; Control: neat, sealed vial, 25° C., first time column (head empty, time 0)): 0.213%
water content, starting value ([9]; before storage): 8.8%
water content after accelerated storage ([9]; one week at 50° C.): 8.66%

C[C@@](O)(CCO)CC(=O)O [MVA, mevalonic acid]
reversal of DHEA-induced growth inhibition by supplement (HT-29 SF cells [3]): partially overcome
prevention of DHEA-induced S phase depletion by supplement (HT-29 SF cells [5]): partially prevented this effect in the initial 48 hours but not after 72 hours

C[C@]12CCC(=O)C=C1CC[C@@H]1[C@@H]2CC[C@@]2(C)[C@H]1CC[C@]2(C)O [Methyltestosterone]
Intracellular adenosine, Liver (tissue adenosine; rat liver, methyltestosterone 120 mg/kg, mean ± SEM): 5.1 ± 0.5 nmols/mg protein
depletion of adenosine in brain (tissue adenosine; [12]): 34%
depletion of adenosine in heart (tissue adenosine; [12]): 22%
Intracellular adenosine, Liver (tissue adenosine; rat, in vivo): 16.5 ± 0.9 nmols/mg protein

C[C@]12CC[C@H](O)CC1=CC[C@@H]1[C@@H]2CC[C@]2(C)C(=O)CC[C@@H]12 [DHEA, 3β-hydroxyandrost-5-en-17-one]
inhibition of growth (HT-29 SF cells [10]): time- and dose-dependent inhibition of growth
cell cycle distribution (HT-29 SF cells [11]; 200 μM DHEA, 24 hours): increase in the percentage of cells in G1 and a decreased proportion of cells in S phase
cell cycle block (HT-29 SF cells [11]; 25-200 μM, 24-72 hours, FIG. 15): G1 block
cell cycle distribution (HT-29 SF cells [11]; 25 or 50 μM DHEA, 72 hours): percentage of cells in G1 phase was increased
cell cycle distribution (HT-29 SF cells [11]; 25 or 50 μM DHEA, initial 24 hours): unchanged
